Measurements from patent US9474777B2, “Plant extract and the process for treating hepatic fibrosis and liver cancer” (Development Center for Biotechnology, priority 2013, dated 2016).

How the values were obtained:
[1] = test system: recurrence of liver cirrhosis and liver cancers after removal of DEN-induced tumor; assay: Recurrence model after removal of DEN-induced tumor; assay type: in vivo, Wistar rats; details: pirfenidone 200 mg/kg/day
Method: Specifically, five-to-six weeks old Wistar rats were obtained from the animal center at the National Taiwan University Medical School. The rats were given 100 ppm DEN drinking water, and they were weighed weekly at feeding times. […] The feeding of DEN was continued for 9 weeks, which is sufficient to induce the occurrence of liver cirrhosis and liver cancer. Liver cancers were removed from the rats for cancer recurrence study. The test samples (GP-T) were tested at two different concentrations and administered to the rats for four weeks (from the ninth to the thirteenth week). Pirfenidone was used as a positive control. In the tests, each group included 6-8 rats. The tests were conducted using the rat model and different concentrations of the GP test samples in the food to assess their effects on liver fibrosis and liver cancer recurrence. Male five-to-six weeks old Wistar rats were obtained from the animal center at the National Taiwan University Medical School. The rats were fed drinking water containing 100 ppm carcinogen, diethylnitrosamine (DEN). During the feeding period, the rats were weighed weekly. The concentrations of DEN were increased according to the body weight increases. After continuous feeding for 9 weeks, DEN was sufficient to induce liver cirrhosis and liver cancer in rats. The liver cancers were removed by surgery after the 9 week period. Then, the rats were treated with two different doses of the test drugs (GP-T) for four weeks (from the ninth week to the thirteenth week). Some rats were given pirfenidone as positive control. In this experiments, each group has n=6-8 rats. This experiment uses a rat model, coupled with feeding the rats with different doses of the test drugs, to evaluate the impacts of the test drugs on the recurrence of liver cirrhosis and liver cancers.

[2] = test system: diethylnitrosamine (DEN)-induced liver fibrosis and liver cancer; assay: DEN-induced liver fibrosis and liver cancer model; assay type: in vivo, Wistar rats
From the text: Specifically, five-to-six weeks old Wistar rats were obtained from the animal center at the National Taiwan University Medical School. The rats were given 100 ppm DEN drinking water, and they were weighed weekly at feeding times. […] The feeding of DEN was continued for 9 weeks, which is sufficient to induce the occurrence of liver cirrhosis and liver cancer. Liver cancers were removed from the rats for cancer recurrence study.

SMILES: Cc1ccc(=O)n(-c2ccccc2)c1 [pirfenidone]
- prophylactic effect on the recurrence of carcinogenesis after tumor removal [1]: no prophylactic effect
- hydroxyproline content in liver ([1]; FIG. 14D): decreased significantly
- carcinogenesis presented by GST-p(+) density ([1]; four weeks after tumor ablation): decreased

SMILES: CNC(=O)c1cc(Oc2ccc(NC(=O)Nc3ccc(Cl)c(C(F)(F)F)c3)cc2)ccn1 [Sorafenib]
- Survival Rate ([2]; sorafenib 30 mg/kg, 6 weeks, DEN rats): 100%
- number of activated astrocytes (α-SMA staining) ([2]; sorafenib group (S), 30 mg/kg): significantly reduced number of activated astrocytes
